Results reported in ChEMBL document CHEMBL3751815, “Sulfonamides incorporating heteropolycyclic scaffolds show potent inhibitory action against carbonic anhydrase isoforms I, II, IX and XII” (Bioorg Med Chem, 2016).
pKi: −log10 of the molar value.

Target: Carbonic anhydrase 9 (Homo sapiens, UniProt Q16790)
Experiment: Inhibition of recombinant human carbonic anhydrase 9 preincubated for 15 mins by stopped-flow CO2 hydration assay

Compound | pKi
NS(=O)(=O)c1ccc(-n2cc3c(n2)-c2ccc(Cl)cc2SC3)cc1 | 8.21
COc1ccc2c(c1)SCc1ccc(NCC(=O)O)cc1-2 | 7.27
NS(=O)(=O)c1ccc(Nc2ncc3c(n2)-c2cccnc2SC3)cc1 | 7.56
COc1ccc2c(c1)SCc1ccc(N(C)CC(=O)O)cc1-2 | 7.39
Cc1ccc2c(n1)SCc1ccc(N(C)CC(=O)O)cc1-2 | 7.03
COc1ccc2c(c1)SCc1cnc(Nc3ccc(S(N)(=O)=O)cc3)nc1-2 | 7.65
NS(=O)(=O)c1ccc(Nc2ncc3c(n2)-c2ccc(Cl)cc2SC3)cc1 | 8.06
NS(=O)(=O)c1ccc(Nc2ncc3c(n2)-c2ccccc2SC3)cc1 | 8.15
NS(=O)(=O)c1ccc(-n2cc3c(n2)-c2ccccc2NC3)cc1 | 8.20
COc1ccc2c(c1)SCc1cn(-c3ccc(S(N)(=O)=O)cc3)nc1-2 | 8.13
CN(CC(=O)O)c1ccc2c(c1)-c1cccnc1SC2 | 7.17
Cc1ccc2c(c1)NCc1cn(-c3ccc(S(N)(=O)=O)cc3)nc1-2 | 8.11
